Experimental data taken from US9206130B2, “Quinoline derivatives as AXL kinase inhibitors” (Max-Planck-Gesellschaft zur Förderung der Wissenschaften …, priority 2008, dated 2015).

Columns and labels:
[1] = molecular target: T1, wild type AXL (wtAXL) receptor tyrosine kinase (Homo sapiens, UniProt P30530); assay: NIH-3T3-AXL cellular tyrosine kinase assay (inhibition of AXL phosphorylation); format: cell-based; conditions: AXL phosphorylation in NIH-3T3-AXL (clone 22) cells, serum-depleted, 2 h with compound, immunoprecipitation / anti-phosphotyrosine blot
T1 construct: WtAXL cDNA was cloned into vector pLXSN(ESK) and transfected into Phoenix E packaging cells; expressed in transfected cells; host or cells: NIH3T3 N7 mouse fibroblasts, retrovirally infected (clone 22)
T1 sequence (P30530 26-894): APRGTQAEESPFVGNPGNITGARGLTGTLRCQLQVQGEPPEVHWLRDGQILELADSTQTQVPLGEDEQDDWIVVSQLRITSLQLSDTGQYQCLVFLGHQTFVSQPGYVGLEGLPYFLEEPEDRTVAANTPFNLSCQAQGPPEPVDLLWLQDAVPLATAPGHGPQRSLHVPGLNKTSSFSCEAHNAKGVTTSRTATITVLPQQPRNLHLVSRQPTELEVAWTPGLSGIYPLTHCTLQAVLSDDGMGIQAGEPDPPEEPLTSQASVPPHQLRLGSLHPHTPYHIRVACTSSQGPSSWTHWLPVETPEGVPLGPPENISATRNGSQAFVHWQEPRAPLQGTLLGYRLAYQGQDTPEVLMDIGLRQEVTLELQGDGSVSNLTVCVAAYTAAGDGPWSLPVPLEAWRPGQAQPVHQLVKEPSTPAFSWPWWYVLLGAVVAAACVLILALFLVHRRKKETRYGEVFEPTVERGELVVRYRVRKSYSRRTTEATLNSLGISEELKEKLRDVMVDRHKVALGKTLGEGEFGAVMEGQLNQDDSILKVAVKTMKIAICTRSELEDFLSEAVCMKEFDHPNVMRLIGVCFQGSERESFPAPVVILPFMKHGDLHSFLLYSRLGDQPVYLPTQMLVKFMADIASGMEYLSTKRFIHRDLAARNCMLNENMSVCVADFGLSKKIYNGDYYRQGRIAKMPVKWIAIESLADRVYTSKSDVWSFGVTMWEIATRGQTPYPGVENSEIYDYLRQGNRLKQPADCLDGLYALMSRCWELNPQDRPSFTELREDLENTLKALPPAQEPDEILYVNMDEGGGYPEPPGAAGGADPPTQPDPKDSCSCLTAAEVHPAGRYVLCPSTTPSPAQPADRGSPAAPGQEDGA
In short: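 NIH3T3 clones stably expressing human wtAXL (puromycin-selected) were exposed to serially diluted compounds for 2 h. AXL was immunoprecipitated from lysates with anti-AXL antibody, and phosphorylation detected by anti-phosphotyrosine (4G10) western blot with ECL.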

Row | SMILES | IC50 [1] [µM] | melting point [°C]
1 | COc1cc2nccc(Oc3ccc(NS(=O)(=O)c4cccc(Br)c4)c(F)c3)c2cc1OC [Example A24, 3-Bromo-N-[4-(6,7-dimethoxy-quinolin-4-yloxy)-2-fluoro-phenyl]-benzenesulfonamide] | 2.4 | 255 to 257
2 | COc1cc2nccc(Oc3ccc(NS(=O)(=O)c4ccc(-c5ccccc5)cc4)cc3OC)c2cc1OC [Example A142, Biphenyl-4-sulfonic acid [4-(6,7-dimethoxy-quinolin-4-yloxy)-3-methoxy-phenyl]-amide] | > 10 | 128 to 131
3 | COc1cc2nccc(Oc3ccc(NS(=O)(=O)c4cccc(Oc5ccccc5)c4)cc3C)c2cc1OC [Example A76, N-[4-(6,7-Dimethoxy-quinolin-4-yloxy)-3-methyl-phenyl]-3-phenoxy-benzenesulfonamide] | > 10 | 115 to 117
4 | COc1cc2nccc(Oc3ccc(NS(=O)(=O)c4cc(Cl)cc(Cl)c4O)cc3C)c2cc1OC [Example A79, 3,5-Dichloro-N-[4-(6,7-dimethoxy-quinolin-4-yloxy)-3-methyl-phenyl]-2-hydroxy-benzenesulfonamide] | 0.48 | 113 to 117
5 | COc1cc2nccc(Oc3ccc(NS(=O)(=O)c4ccccc4OC(F)(F)F)cc3)c2cc1OC [Example A114, N-[4-(6,7-Dimethoxy-quinolin-4-yloxy)-phenyl]-2-trifluoromethoxy-benzenesulfonamide] | 0.47 | 222 to 223
6 | COc1cc2nccc(Oc3ccc(NS(=O)(=O)c4ccc(Br)c(C)c4)c(F)c3)c2cc1OC [Example A19, 4-Bromo-N-[4-(6,7-dimethoxy-quinolin-4-yloxy)-2-fluoro-phenyl]-3-methyl-benzenesulfonamide] | 4.5 | 199 to 201
7 | COc1cc2nccc(Oc3ccc(NS(=O)(=O)c4cccc(Oc5ccccc5)c4)c(C)c3)c2cc1OC [Example A90, N-[4-(6,7-Dimethoxy-quinolin-4-yloxy)-2-methyl-phenyl]-3-phenoxy-benzenesulfonamide] | > 10 | 169 to 170
8 | COc1cc2nccc(Oc3ccc(NS(=O)(=O)c4cccc(C)c4)c(F)c3)c2cc1OC [Example A26, N-[4-(6,7-Dimethoxy-quinolin-4-yloxy)-2-fluoro-phenyl]-3-methyl-benzenesulfonamide] | 4.73 | 244 to 245
9 | COc1cc2nccc(Oc3ccc(NS(=O)(=O)c4cc5ccccc5s4)c(C)c3)c2cc1OC [Example A94, Benzo[b]thiophene-2-sulfonic acid [4-(6,7-dimethoxy-quinolin-4-yloxy)-2-methyl-phenyl]-amide] | > 10 | 255 to 257
10 | COc1cc2nccc(Oc3ccc(NS(=O)(=O)c4cc(C)c(NC(C)=O)c(C)c4)cc3)c2cc1OC [Example A66, N-{4-[4-(6,7-Dimethoxy-quinolin-4-yloxy)-phenylsulfamoyl]-2,6-dimethyl-phenyl}-acetamide] | > 10 | 145 to 147
11 | COc1cc2nccc(Oc3ccc(NS(=O)(=O)c4ccccc4Cl)c(F)c3)c2cc1OC [Example A54, 2-Chloro-N-[4-(6,7-dimethoxy-quinolin-4-yloxy)-2-fluoro-phenyl]-benzenesulfonamide] | > 1 | 232 to 234
12 | COc1cc2nccc(Oc3ccc(NS(=O)(=O)c4cccc5ccccc45)cc3F)c2cc1OC [Example A100, Naphthalene-1-sulfonic acid [4-(6,7-dimethoxy-quinolin-4-yloxy)-3-fluoro-phenyl]-amide] | 0.74 | 118 to 120
13 | COc1cc2nccc(Oc3ccc(NS(=O)(=O)c4cc(F)ccc4F)cc3)c2cc1OC [Example A118, N-[4-(6,7-Dimethoxy-quinolin-4-yloxy)-phenyl]-2,5-difluoro-benzenesulfonamide] | 0.54 | 260 to 263
14 | COc1cc2nccc(Oc3ccc(NS(=O)(=O)c4cccc5ccccc45)c(C)c3)c2cc1OC [Example A91, Naphthalene-1-sulfonic acid [4-(6,7-dimethoxy-quinolin-4-yloxy)-2-methyl-phenyl]-amide] | > 10 | 233 to 235
15 | COc1cc2nccc(Oc3ccc(NS(=O)(=O)c4cc(Cl)sc4Cl)c(F)c3)c2cc1OC [Example A18, 2,5-Dichloro-thiophene-3-sulfonic acid [4-(6,7-dimethoxy-quinolin-4-yloxy)-2-fluoro-phenyl]-amide] | 2.1 | 223 to 225
16 | COc1cc2nccc(Oc3ccc(NS(=O)(=O)c4ccc(Br)c(Cl)c4)cc3F)c2cc1OC [Example A124, 4-Bromo-3-chloro-N-[4-(6,7-dimethoxy-quinolin-4-yloxy)-3-fluoro-phenyl]-benzenesulfonamide] | > 3 | 144 to 147
17 | COC(=O)c1sccc1S(=O)(=O)Nc1ccc(Oc2ccnc3cc(OC)c(OC)cc23)cc1F [Example A9, 3-[4-(6,7-Dimethoxy-quinolin-4-yloxy)-2-fluoro-phenylsulfamoyl]-thiophene-2-carboxylic acid methyl ester] | 3.7 | 189 to 190
18 | COc1cc2nccc(Oc3ccc(NS(=O)(=O)Cc4ccccc4)c(F)c3)c2cc1OC [Example A73, N-[4-(6,7-Dimethoxy-quinolin-4-yloxy)-2-fluoro-phenyl]-C-phenyl-methanesulfonamide] | > 3 | 204 to 205

The next lines start with the values.

Row | IC50 [1] [µM] | melting point [°C] | SMILES
19 | 2.46 | 195 to 196 | COc1cc2c(Oc3ccc(NS(=O)(=O)c4cc(F)ccc4F)c(C)c3)ccnc2cc1OCCN1CCOCC1 [Example D09, 2,5-Difluoro-N-{4-[6-methoxy-7-(2-morpholin-4-yl-ethoxy)-quinolin-4-yloxy]-2-methyl-phenyl}-benzenesulfonamide]
20 | > 10 | 191 to 193 | Cc1cc(Oc2ccc(NS(=O)(=O)c3ccc(Br)cc3C(F)(F)F)cc2)c2cc(F)ccc2n1 [Example B15, 4-Bromo-N-[4-(6-fluoro-2-methyl-quinolin-4-yloxy)-phenyl]-2-trifluoromethyl-benzenesulfonamide]
21 | > 10 | 205 to 207 | Cc1cc(Oc2ccc(NS(=O)(=O)c3ccc(F)c(Cl)c3)c(F)c2)c2cc(F)ccc2n1 [Example B5, 3-Chloro-4-fluoro-N-[2-fluoro-4-(6-fluoro-2-methyl-quinolin-4-yloxy)-phenyl]-benzenesulfonamide]
22 | > 10 | 167 to 168 | Cc1cc(Oc2ccc(NS(=O)(=O)c3cccc(Oc4ccccc4)c3)c(F)c2)c2cccc(C(F)(F)F)c2n1 [Example C03, N-[2-Fluoro-4-(2-methyl-8-trifluoromethyl-quinolin-4-yloxy)-phenyl]-3-phenoxy-benzenesulfonamide]
23 | > 10 | 219 to 220 | Cc1cc(Oc2ccc(NS(=O)(=O)c3cccc(-c4ncccn4)c3)c(F)c2)c2cccc(C(F)(F)F)c2n1 [Example C16, N-[2-Fluoro-4-(2-methyl-8-trifluoromethyl-quinolin-4-yloxy)-phenyl]-3-pyrimidin-2-yl-benzenesulfonamide]
24 | 0.042 | 117 to 119 | COc1cc2c(Oc3ccc(NS(=O)(=O)c4c(F)cccc4F)cc3F)ccnc2cc1OCCCN1CCCC(C)C1 (stereo not shown) [Example D32, 2,6-Difluoro-N-(3-fluoro-4-{6-methoxy-7-[3-(3-methyl-piperidin-1-yl)-propoxy]-quinolin-4-yloxy}-phenyl)-benzenesulfonamide]
25 | 0.347 | 140 to 143 | COc1cc2c(Oc3ccc(NS(=O)(=O)c4cccc5ccccc45)cc3F)ccnc2cc1OCCCN1CCC(C)CC1 [Example D21, Naphthalene-1-sulfonic acid (3-fluoro-4-{6-methoxy-7-[3-(4-methyl-piperidin-1-yl)-propoxy]-quinolin-4-yloxy}-phenyl)-amide]
26 | > 10 | 165 to 167 | CCn1cc(S(=O)(=O)Nc2ccc(Oc3cc(C)nc4ccc(F)cc34)cc2)cn1 [Example B21, 1-Ethyl-1H-pyrazole-4-sulfonic acid [4-(6-fluoro-2-methyl-quinolin-4-yloxy)-phenyl]-amide]
